According to patent publication US7285664B2, “Heterocyclic or benzenic derivatives of lipoic acid, their preparation and their use as medicaments” (S.C.R.A.S. Societe de Conseils de Recherches et …, priority 2000, dated 2007):
Structures can show the parent of a compound that is named as a salt.

Test system: HT-22 cells
Test: Effects on the oxidative stress induced by glutamate on cells in culture (HT-22), MTT viability
Type: cell-based
Settings: Mus musculus; protection of HT-22 cells from glutamate (5 mM); viability after 24 hours by MTT
Experimental: Study of the Effects on the Oxidative Stress Induced by Glutamate on Cells in Culture (HT-22):
The inhibitory activity of the products of the invention is determined by measuring their ability to protect the cells of a mouse hippocampal cell line (HT-22) from oxidative stress caused by glutamate. The biosynthesis of glutathione, an essential element in cell detoxification of free radicals, requires the active transport of cystine to inside the cell. The glutamate by opposing the penetration of cystine causes a reduction in the level of gluthatione which leads to the death of the cell by oxidative stress (Demerle-Pallardy, C. et al., J. Neurochem. (2000), 74, 2079-2086; Davis, J. B. and Maher, P., Brain Res., (1994) 652: 169-173; Murphy, T. H. et al., Neuron, (1989) 2: 1547-1558). The cells are cultured at 37° C. in a DMEM medium with 10% of fetal calf serum added to it. The tests are carried out in 96-well plates containing 5000 cells per well. The glutamate (5 mM) is added to the medium containing or not containing the products to be tested. The cell viability is tested after 24 hours by the MTT process (Hansen, M. B. et al., J. Immunol. Processes (1989) 119: 203-210). The ability of the compounds to protect the cells from the toxic action of the glutamate is estimated in EC50, calculated relative to the viability of cells which have not been subjected to the action of the glutamate considered as 100% viability.

SMILES	EC50
N#Cc1cc(N=C(N)c2cccs2)ccc1N1CCN(C(=O)NCCCCC2CCSS2)CC1 (stereo not drawn) [Example 10, 4-(4-{[amino(2-thienyl)methylidene]amino}-2-cyanophenyl)-N-[4-(1,2-dithiolan-3-yl)butyl]-1-piperazinecarboxamide]	≤ 4 µM
COc1cc(N2CCN(C(=O)NCCCCC3CCSS3)CC2)ccc1N=C(N)c1cccs1 (stereo not drawn) [Example 9, 4-(4-{[amino(2-thienyl)methylidene]amino}-3-methoxyphenyl)-N-[4-(1,2-dithiolan-3-yl)butyl]-1-piperazinecarboxamide]	≤ 4 µM
NC(=Nc1ccc(N2CCN(C(=O)CC3CCSS3)CC2)cc1)c1cccs1 (stereo not drawn) [Example 2, N′-(4-{4-[2-(1,2-dithiolan-3-yl)acetyl]-1-piperazinyl}phenyl)-2-thiophenecarboximidamide]	≤ 4 µM
NC(=Nc1ccc(N2CCN(C(=O)NCCCCC3CCSS3)CC2)cc1)c1cccs1 (stereo not drawn) [Example 5, 4-(4-{[amino(2-thienyl)methylidene]amino}phenyl)-N-[4-(1,2-dithiolan-3-yl)butyl]-1-piperazinecarboxamide]	≤ 4 µM
NC(=Nc1cccc(CN2CCN(C(=O)NCCCCC3CCSS3)CC2)c1)c1cccs1 (stereo not drawn) [Example 11, 4-(3-{[amino(2-thienyl)methylidene]amino}benzyl)-N-[4-(1,2-dithiolan-3-yl)butyl]-1-piperazinecarboxamide]	≤ 4 µM
NC(=Nc1ccc(N2CCN(C(=O)CCCCC3CCSS3)CC2)cc1)c1cccs1 (stereo not drawn) [Example 1, N′-(4-{4-[5-(1,2-dithiolan-3-yl)pentanoyl]-1-piperazinyl)phenyl)-2-thiophenecarboximidamide hydrochloride]	≤ 4 µM
NC(=Nc1cccc(CN2CCN(C(=O)CC3CCSS3)CC2)c1)c1cccs1 (stereo not drawn) [Example 4, N′-[3-({4-[2-(1,2-dithiolan-3-yl)acetyl]-1-piperazinyl}methyl)phenyl]-2-thiophenecarboximidamide]	≤ 4 µM
COc1cc(N=C(N)c2cccs2)ccc1N1CCN(C(=O)NCCCCC2CCSS2)CC1 (stereo not drawn) [Example 8, 4-(4-{[amino(2-thienyl)methylidene]amino}-2-methoxyphenyl)-N-[4-(1,2-dithiolan-3-yl)butyl]-1-piperazinecarboxamide]	≤ 4 µM
Cc1cc(N2CCN(C(=O)NCCCCC3CCSS3)CC2)ccc1N=C(N)c1cccs1 (stereo not drawn) [Example 7, 4-(4-{[amino(2-thienyl)methylidene]amino}-3-methylphenyl)-N-[4-(1,2-dithiolan-3-yl)butyl]-1-piperazinecarboxamide]	≤ 4 µM
